# US9932637B2, “Genetic polymorphisms associated with cardiovascular disorders and drug response, methods of detection and uses thereof” (CELERA CORPORATION, priority 2003, dated 2018)
# Tested on: patients with prior myocardial infarction (CARE study)
# Test: CARE: association of SNPs with pravastatin treatment in cardiovascular events prevention (logistic regression, odds ratio pravastatin vs placebo by genotype; Table 8)
# Type: in vivo, human
# Conditions: for MI (Fatal/Nonfatal), n/total (%) / Nonfatal MI (Probable/Definite), n/total (%) / Nonfatal MI (def & prob), n/total (%) / Fatal/Nonfatal MI (def & prob), n/total (%) / Hosp. for Unstable Angina, n/total (%): MJD hCV16189421, All Patients; for MI (Fatal/Nonfatal), n/total (%) / Nonfatal MI (Probable/Definite), n/total (%) / Nonfatal MI (def & prob), n/total (%) / Fatal/Nonfatal MI (def & prob), n/total (%) / Hosp. for Unstable Angina, n/total (%) / Percutaneous Transluminal Coronary Angioplas, n/total (%) / Fatal/Nonfatal Cerebrovascular Disease, n/total (%): Prava arm; for Percutaneous Transluminal Coronary Angioplas, n/total (%): MMP27 hCV7492601, All Patients; for Total Coronary Heart Disease Events, n/total (%) / Fatal/Non-fatal Atherosclerotic CV Disease, n/total (%) / Hosp. for Cardiovascular Disease, n/total (%) / Total Cardiovascular Disease Events, n/total (%) / Prava vs. Placebo Odds Ratio, 0 Rare Alleles / Prava vs. Placebo Odds Ratio, 1 Rare Alleles / Prava vs. Placebo Odds Ratio, 2 Rare Alleles / Fatal Atherosclerotic Cardiovascular Disease, n/total (%) / Cardiovascular Mortality, n/total (%): All Patients; for Total Coronary Heart Disease Events, n/total (%) / Fatal/Non-fatal Atherosclerotic CV Disease, n/total (%) / Hosp. for Cardiovascular Disease, n/total (%) / Total Cardiovascular Disease Events, n/total (%) / Fatal Atherosclerotic Cardiovascular Disease, n/total (%) / Cardiovascular Mortality, n/total (%): Prava; for Fatal/Nonfatal Cerebrovascular Disease, n/total (%): NID2 hCV15876071, All Patients
# Excerpt: In order to identify genetic markers associated with acute coronary events (e.g. MI, stroke, unstable angina, congestive heart failure, etc.) or response to statin treatment for the prevention of coronary events, samples from the Cholesterol and Recurrent Events (CARE) study (a randomized multicentral double-blinded trial on secondary prevention of acute coronary events with pravastatin) (Sacks et al., 1991, Am. J. Cardiol. 68: 1436-1446) were genotyped. A well-documented myocardial infarction (MI) was one of the enrollment criteria for entry into the CARE study. Patients were enrolled in the CARE trial from 80 participating study centers. […] Patients were randomized to receive either 40 mg of pravastatin once daily or a matching placebo. The primary endpoint of the trial was death from coronary heart disease and the median duration of follow-up was 5.0 years (range, 4.0 to 6.2 years). […] Secondary endpoints of other related cardiovascular or metabolic disease events, and changes in clinical variables were also recorded in pravastatin-treated and placebo groups. All individuals included in the study had signed a written informed consent form and the study protocol was approved by the respective Institutional Review Boards (IRBs).
# For genotyping SNPs in CARE patient samples, DNA was extracted from blood samples using conventional DNA extraction methods such as the QIA-amp kit from Qiagen. Genotypes were obtained on an ABI PRISM® 7900HT Sequence Detection PCR system (Applied Biosystems, Foster City, Calif.) by kinetic allele-specific PCR, similar to the method described by Germer et al. (Germer S., Holland M. J., Higuchi R. 2000, Genome Res. 10: 258-266).
# Statistical analysis for association of SNPs with pravastatin treatment in cardiovascular events prevention (Table 8) was carried out using an overall logistic regression model that included an intercept, a parameter for the effect of a genotype containing two rare alleles versus a genotype containing no rare alleles, a parameter for the effect of a genotype containing one rare allele versus a genotype containing no rare alleles, a parameter for the effect of use of pravastatin versus the use of placebo, and parameters for the interaction effects between SNP genotypes and pravastatin use. The test of the overall model is a chi-square test with two degrees of freedom for analyses containing all three genotypes, and one degree of freedom for analyses containing two genotypes.
# Effect sizes were estimated through odds ratios (pravastatin group versus placebo) for carriers of each genotype (groups of 0, 1, and 2 minor allele carriers). The effect was considered to be significant if p-value for testing whether any of the interactions between SNP genotypes and pravastatin use were <0.05. […] Odds ratios less than one indicate that the specific SNP allele has a protective effect and odds ratios greater than one indicate that the specific SNP allele has an adverse effect.
# [1] = MTRR hCV7580070, 2 Rare Alleles, n/total 2/22
# [2] = MTRR hCV7580070, 2 Rare Alleles, n/total 5/22
# [3] = MTRR hCV7580070, Fatal/Non-fatal Atherosclerotic CV Disease
# [4] = MTRR hCV7580070, Hosp. for Cardiovascular Disease
# [5] = MTRR hCV7580070, Total Cardiovascular Disease Events
# [6] = MTRR hCV7580070, Total Coronary Heart Disease Events
# [7] = NPC1 hCV7490135, 1 Rare Allele, n/total 26/742
# [8] = NPC1 hCV7490135, 2 Rare Alleles, n/total 3/324
smiles,measurement,setting,value
CC[C@H](C)C(=O)O[C@H]1C[C@H](O)C=C2C=C[C@H](C)[C@H](CC[C@@H](O)C[C@@H](O)CC(=O)O)[C@H]21 [pravastatin],"MI (Fatal/Nonfatal), n/total (%)",0 Rare Alleles,(8.6%)
same,"Nonfatal MI (Probable/Definite), n/total (%)",0 Rare Alleles,(8.0%)
same,"Nonfatal MI (def & prob), n/total (%)",0 Rare Alleles,(7.5%)
same,"Fatal/Nonfatal MI (def & prob), n/total (%)",1 Rare Allele,(11.9%)
same,"Hosp. for Unstable Angina, n/total (%)",1 Rare Allele,(17.6%)
same,"MI (Fatal/Nonfatal), n/total (%)",1 Rare Allele,(12.1%)
same,"Nonfatal MI (Probable/Definite), n/total (%)",1 Rare Allele,(11.3%)
same,"Nonfatal MI (def & prob), n/total (%)",1 Rare Allele,(11.2%)
same,"Fatal/Nonfatal MI (def & prob), n/total (%)",2 Rare Alleles,(11.2%)
same,"Hosp. for Unstable Angina, n/total (%)",2 Rare Alleles,(10.1%)
same,"MI (Fatal/Nonfatal), n/total (%)",2 Rare Alleles,(11.2%)
same,"Nonfatal MI (Probable/Definite), n/total (%)",2 Rare Alleles,(11.2%)
same,"Nonfatal MI (def & prob), n/total (%)",2 Rare Alleles,(11.2%)
same,"Percutaneous Transluminal Coronary Angioplas, n/total (%)",0 Rare Alleles,(9.7%)
same,"Percutaneous Transluminal Coronary Angioplas, n/total (%)",1 Rare Allele,(9.1%)
same,"Percutaneous Transluminal Coronary Angioplas, n/total (%)",2 Rare Alleles,(8.2%)
same,"Total Coronary Heart Disease Events, n/total (%)","MTRR hCV7580070, 0 Rare Alleles, n/total 338/1201",(28.1%)
same,"Fatal/Non-fatal Atherosclerotic CV Disease, n/total (%)","MTRR hCV7580070, 0 Rare Alleles, n/total 390/1201",(32.5%)
same,"Hosp. for Cardiovascular Disease, n/total (%)","MTRR hCV7580070, 0 Rare Alleles, n/total 466/1201",(38.8%)
same,"Total Cardiovascular Disease Events, n/total (%)","MTRR hCV7580070, 0 Rare Alleles, n/total 480/1201",(40.0%)
same,"Total Coronary Heart Disease Events, n/total (%)","MTRR hCV7580070, 1 Rare Allele, n/total 98/284",(34.5%)
same,"Fatal/Non-fatal Atherosclerotic CV Disease, n/total (%)","MTRR hCV7580070, 1 Rare Allele, n/total 110/284",(38.7%)
same,"Hosp. for Cardiovascular Disease, n/total (%)","MTRR hCV7580070, 1 Rare Allele, n/total 135/284",(47.5%)
same,"Total Cardiovascular Disease Events, n/total (%)","MTRR hCV7580070, 1 Rare Allele, n/total 137/284",(48.2%)
same,"Fatal/Non-fatal Atherosclerotic CV Disease, n/total (%)",[1],(9.1%)
same,"Total Coronary Heart Disease Events, n/total (%)",[1],(9.1%)
same,"Hosp. for Cardiovascular Disease, n/total (%)",[2],(22.7%)
same,"Total Cardiovascular Disease Events, n/total (%)",[2],(22.7%)
same,"Prava vs. Placebo Odds Ratio, 0 Rare Alleles",[3],0.74
same,"Prava vs. Placebo Odds Ratio, 1 Rare Alleles",[3],0.95
same,"Prava vs. Placebo Odds Ratio, 2 Rare Alleles",[3],0.09
same,"Prava vs. Placebo Odds Ratio, 0 Rare Alleles",[4],0.71
same,"Prava vs. Placebo Odds Ratio, 1 Rare Alleles",[4],1.04
same,"Prava vs. Placebo Odds Ratio, 2 Rare Alleles",[4],0.22
same,"Prava vs. Placebo Odds Ratio, 0 Rare Alleles",[5],0.71
same,"Prava vs. Placebo Odds Ratio, 1 Rare Alleles",[5],1.01
same,"Prava vs. Placebo Odds Ratio, 2 Rare Alleles",[5],0.22
same,"Prava vs. Placebo Odds Ratio, 0 Rare Alleles",[6],0.73
same,"Prava vs. Placebo Odds Ratio, 1 Rare Alleles",[6],1.00
same,"Prava vs. Placebo Odds Ratio, 2 Rare Alleles",[6],0.12
same,"Fatal/Nonfatal Cerebrovascular Disease, n/total (%)",0 Rare Alleles,(5.7%)
same,"Fatal/Nonfatal Cerebrovascular Disease, n/total (%)",1 Rare Allele,(4.1%)
same,"Fatal/Nonfatal Cerebrovascular Disease, n/total (%)",2 Rare Alleles,(1.7%)
same,"Fatal Atherosclerotic Cardiovascular Disease, n/total (%)","NPC1 hCV7490135, 0 Rare Alleles, n/total 25/437",(5.7%)
same,"Cardiovascular Mortality, n/total (%)","NPC1 hCV7490135, 0 Rare Alleles, n/total 26/437",(5.9%)
same,"Total Coronary Heart Disease Events, n/total (%)","NPC1 hCV7490135, 0 Rare Alleles, n/total 146/437",(33.4%)
same,"Fatal/Non-fatal Atherosclerotic CV Disease, n/total (%)","NPC1 hCV7490135, 0 Rare Alleles, n/total 165/437",(37.8%)
same,"Hosp. for Cardiovascular Disease, n/total (%)","NPC1 hCV7490135, 0 Rare Alleles, n/total 194/437",(44.4%)
same,"Total Cardiovascular Disease Events, n/total (%)","NPC1 hCV7490135, 0 Rare Alleles, n/total 202/437",(46.2%)
same,"Cardiovascular Mortality, n/total (%)",[7],(3.5%)
same,"Fatal Atherosclerotic Cardiovascular Disease, n/total (%)",[7],(3.5%)
same,"Total Coronary Heart Disease Events, n/total (%)","NPC1 hCV7490135, 1 Rare Allele, n/total 213/742",(28.7%)
same,"Fatal/Non-fatal Atherosclerotic CV Disease, n/total (%)","NPC1 hCV7490135, 1 Rare Allele, n/total 246/742",(33.2%)
same,"Hosp. for Cardiovascular Disease, n/total (%)","NPC1 hCV7490135, 1 Rare Allele, n/total 295/742",(39.8%)
same,"Total Cardiovascular Disease Events, n/total (%)","NPC1 hCV7490135, 1 Rare Allele, n/total 303/742",(40.8%)
same,"Cardiovascular Mortality, n/total (%)",[8],(0.9%)
same,"Fatal Atherosclerotic Cardiovascular Disease, n/total (%)",[8],(0.9%)
same,"Total Coronary Heart Disease Events, n/total (%)","NPC1 hCV7490135, 2 Rare Alleles, n/total 81/324",(25.0%)
